These results are taken from PMC7177833, “2-Aminopyridine Analogs Inhibit Both Enzymes of the Glyoxylate Shunt in Pseudomonas aeruginosa” (International Journal of Molecular Sciences, 2020).

Values after ≈ are worked out from the molar mass of the structure shown. Like-named read-outs stand apart in the source and are kept apart here.

In assay [1] the target is T1, ICLPa (isocitrate lyase from P. aeruginosa) (Pseudomonas aeruginosa, UniProt Q9I0K4).
T1 construct: made in house
T1 sequence (Q9I0K4 1-531): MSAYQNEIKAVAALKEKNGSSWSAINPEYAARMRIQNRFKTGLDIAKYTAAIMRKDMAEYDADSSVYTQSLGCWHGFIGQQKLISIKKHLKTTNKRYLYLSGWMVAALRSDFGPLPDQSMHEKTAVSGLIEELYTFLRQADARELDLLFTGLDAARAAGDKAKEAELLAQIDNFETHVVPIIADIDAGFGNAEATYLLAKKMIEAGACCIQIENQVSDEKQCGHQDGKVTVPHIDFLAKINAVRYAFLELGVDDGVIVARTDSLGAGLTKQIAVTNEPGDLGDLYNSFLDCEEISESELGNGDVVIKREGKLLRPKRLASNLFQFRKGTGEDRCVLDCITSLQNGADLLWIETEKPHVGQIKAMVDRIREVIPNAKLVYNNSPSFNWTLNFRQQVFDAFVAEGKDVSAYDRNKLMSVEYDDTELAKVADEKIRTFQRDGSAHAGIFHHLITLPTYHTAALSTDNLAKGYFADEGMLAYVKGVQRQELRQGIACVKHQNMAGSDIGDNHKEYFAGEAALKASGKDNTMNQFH
Kind of assay: Inhibition of purified ICLPa enzymatic activity. It is filed as biochemical. Conditions: for IC50: purified enzyme, 170 nM ICL. On the procedure: (§1) The enzymatic activity of purified ICLPa and MSPa was assayed essentially as previously described. Compounds were added to the reaction mixtures (minus substrates) and incubated for 5 min at 37 °C. The enzyme concentration in the reaction mixtures was 170 nM for ICL and 25 nM for MS (based on the concentration of the monomer in each case). […] The reactions were initiated by the addition of pH-adjusted substrates, and the initial rates were recorded as A324 nm (for ICLPa) and A412 nm (for MSPa) using a Biospectrometer (Eppendorf, Stevenage, UK). Substrate turnover was calculated from the molar extinction coefficient of the assay products: Glyoxylate-phenylhydrazone (16,800/M/cm) for ICLPa and 2-nitro-5-thiobenzoic acid (14,150/M/cm) for MSPa.
(§2) All data fitting was performed with GraphPad Prism version 7.04 (GraphPad Software, Inc., La Jolla, CA, USA). The solid lines are the result of fitting the data to the equations denoted in relevant experimental sections. IC50 values were determined by a nonlinear fit using the equation for sigmoidal dose-response with variable slope. In all graphs, unless otherwise stated, the data points are the mean of experimental triplicates, and all error bars correspond to ± standard deviation.

The target in assay [2] is T2, MSPa (malate synthase G from P. aeruginosa) (Pseudomonas aeruginosa, UniProt Q9I636).
T2 construct: made in house
T2 sequence (Q9I636 whole entry): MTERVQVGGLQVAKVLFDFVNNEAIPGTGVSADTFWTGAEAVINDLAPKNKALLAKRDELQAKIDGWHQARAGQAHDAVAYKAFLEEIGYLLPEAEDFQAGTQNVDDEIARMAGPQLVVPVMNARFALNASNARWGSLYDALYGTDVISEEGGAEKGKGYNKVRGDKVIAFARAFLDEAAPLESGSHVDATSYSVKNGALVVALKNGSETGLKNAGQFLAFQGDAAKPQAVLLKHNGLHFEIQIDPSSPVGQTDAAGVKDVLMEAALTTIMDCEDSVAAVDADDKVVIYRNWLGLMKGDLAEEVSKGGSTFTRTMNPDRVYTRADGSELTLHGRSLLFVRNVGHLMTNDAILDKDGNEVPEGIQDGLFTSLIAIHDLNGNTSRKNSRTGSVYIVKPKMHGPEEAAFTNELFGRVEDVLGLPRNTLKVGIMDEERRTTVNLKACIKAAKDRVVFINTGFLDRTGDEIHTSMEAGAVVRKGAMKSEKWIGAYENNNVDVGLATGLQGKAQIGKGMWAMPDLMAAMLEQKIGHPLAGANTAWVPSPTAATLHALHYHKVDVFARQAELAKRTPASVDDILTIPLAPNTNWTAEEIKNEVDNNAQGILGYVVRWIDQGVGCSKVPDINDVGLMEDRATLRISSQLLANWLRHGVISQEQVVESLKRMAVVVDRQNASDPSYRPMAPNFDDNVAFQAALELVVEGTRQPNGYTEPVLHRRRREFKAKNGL
Kind of assay: Inhibition of purified MSPa enzymatic activity. Conditions: for inhibition at 75 µM: 75 µM compound, read-out: Enzyme Inhibition (%) at 75 µM MSPa. It is filed as biochemical. The method, then:
as §1, §2

The next assay deals with P. aeruginosa PAO1. Kind of assay: Antibacterial growth assay (OD600, 18 h) in LB or M9-acetate. Conditions: Pseudomonas aeruginosa; for inhibition at 200 µM: final optical density; for MIC: PAO1, MIC = lowest concentration inhibiting >75% of growth. It is filed as cell-based. The method, then:
Growth assays were carried out using clear, U-bottom, sterile 96-well plates (Thermo Fisher Scientific, Bishop’s Stortford, UK). P. aeruginosa PAO1 overnight cultures were diluted to a starting OD600 of 0.05 in LB medium or M9 medium supplemented with 0.5% acetate. The test compounds were added to the indicated final concentrations, and the plates were covered with gas-permeable adhesive seals (Scientific Laboratory Supplies, Nottingham, UK). Assay controls included 1% DMSO, a positive antibiotic control (ciprofloxacin, 1 µg/mL), and medium-only wells as a control for background absorbance. […]

Where [3] appears, read: 75 µM compound, read-out: Enzyme Inhibition (%) at 75 µM ICLPa.
Where [4] appears, read: PAO1, LB medium, read-out: PAO1 Growth Inhibition (%) at 200 µM LB.
Setting [5] is: PAO1, M9-acetate medium, read-out: PAO1 Growth Inhibition (%) at 200 µM M9ac.
The mark [6] stands for this setting: M9 medium with 0.5% acetate, read-out: MIC M9ac.

With `C=C(CC(=O)O)C(=O)O` [ITA, itaconate, reference compound], in assay [1] (75 µM compound), the “Enzyme Inhibition (%) at 75 µM ICLPa” value stood at 72.6%. In addition, the IC50 (as a rule, the concentration needed to halve the response being measured) in assay [1] was determined as 24.9 µM. Besides, the inhibition (as a rule, the drop in the measured response relative to a control, in per cent) at 75 µM in assay [1] (read-out: Enzyme Inhibition (%) at 75 µM ICLPa, 75 µM compound) is about 70%.

As to `CC(C)(C)OC(=O)/N=C(\NC(=O)OC(C)(C)C)Nc1cc(Br)ccn1` [SB001], the IC50 in assay [2] and in assay [1] was over 75 µM throughout. In addition, the inhibition at 75 µM in assay [2] was determined as 16.2%; in assay [1] (setting [3]) it was 6.1%. Moreover, the inhibition at 200 µM with P. aeruginosa PAO1 (setting [4]) worked out at 0%; in the assay with P. aeruginosa PAO1 (setting [5]), 48%. Further, the MIC (in general, the lowest concentration that inhibits growth of the organism) in the assay with P. aeruginosa PAO1 (LB medium, read-out: MIC LB) was over 200 µM; with P. aeruginosa PAO1 (setting [6]) it was over 200 µM.

Consider `CC(C)(C)OC(=O)/N=C(\NC(=O)OC(C)(C)C)Nc1cc(C(F)(F)F)ccn1` [SB022], for which the IC50 in assay [2] and in assay [1] was over 75 µM in each case. Further, the inhibition at 75 µM in assay [2] was 0%; in assay [1] (setting [3]) it was 4.3%. Also, the inhibition at 200 µM in the assay on P. aeruginosa PAO1 (setting [4]) was 0%; with P. aeruginosa PAO1 (setting [5]), 7%. Moreover, the MIC in the assay on P. aeruginosa PAO1 (LB medium, read-out: MIC LB) is over 200 µM; in the assay on P. aeruginosa PAO1 (setting [6]) it was over 200 µM.

On to `CC(C)(C)OC(=O)/N=C(\NC(=O)OC(C)(C)C)Nc1cc(F)ccn1` [SB026], for which the IC50 in assay [2] stood at 59.3 µM; in assay [1], 54.5 µM. For the same compound, the inhibition at 75 µM was 55.1% in assay [2] and 62% in assay [1] (setting [3]). In addition, the inhibition at 200 µM was about 23% in the assay with P. aeruginosa PAO1 (setting [4]) and 72% in the assay on P. aeruginosa PAO1 (setting [5]). The MIC is over 200 µM in the assay with P. aeruginosa PAO1 (LB medium, read-out: MIC LB) and 70.9 µM (≈ 25.1 µg/mL) with P. aeruginosa PAO1 (setting [6]).

Take `COC(=O)c1ccnc(N/C(=N/C(=O)OC(C)(C)C)NC(=O)OC(C)(C)C)c1` [SB029]: the IC50 in assay [2] is over 75 µM; in assay [1], 64.7 µM. Moreover, the inhibition at 75 µM in assay [2] was 0%; in assay [1] (setting [3]), 55.9%. Besides, the inhibition at 200 µM with P. aeruginosa PAO1 (setting [4]) is 6%; with P. aeruginosa PAO1 (setting [5]), 45%. Also, the MIC with P. aeruginosa PAO1 (LB medium, read-out: MIC LB) was over 200 µM; in the assay with P. aeruginosa PAO1 (setting [6]) it was over 78.9 µM.

In the case of `CC(C)(C)OC(=O)/N=C(\NC(=O)OC(C)(C)C)Nc1ccnc(Cl)c1` [SB032], the values for the IC50 in assay [2] and in assay [1] were 70.6 µM and 91.8 µM, respectively. Further, the inhibition at 75 µM was found to be 48.7% in assay [2] and 43.8% in assay [1] (setting [3]).
